Patent US12391679B2, “Benzamide-substituted bicyclic imidazo- and pyrazolo-fused -pyridine, -pyrimide, and -pyridazine compounds for treatment of inflammatory diseases” (ONCO3R Therapeutics BV, priority 2019, dated 2025)

These compounds were tested on LPS-induced TNFα in monocyte-derived macrophages (assay: MdM assay: LPS-triggered TNFα (ELISA)). Settings: Homo sapiens, Macrophage, 20 h, read-out: TNFα EC50 (nM).
Format: cell-based, human
Procedure, shortened: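 TNFα secretion quantified by streptavidin-HRP/luminol sandwich ELISA in supernatants collected 20 h after LPS (200 ng/mL). Macrophages derived from magnetically isolated human CD14+ monocytes were used at day 10, with compound added 1 h before LPS; final DMSO 0.2%.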

Compound | EC50 [nM]
COc1cc(-c2cnn3cc(C(C)(C)C#N)ccc23)cc(OC(F)F)c1C(=O)N[C@@H]1C[C@H]1F (single isomer, unassigned) [Cpd 257, 4-[6-(1-cyano-1-methyl-ethyl)pyrazolo[1,5-a]pyridin-3-yl]-2-(difluoromethoxy)-N-(2-fluorocyclopropyl)-6-methoxy-benzamide] | 100 to 1000

Same assay, conditions: Macrophage; human MdM; LPS 200 ng/mL; supernatant after 20 h; inhibition of TNFα; read-out: TNFα EC50

Compound | EC50 [nM]
COc1cc(-c2cnc3cc([C@@](C)(O)C4CC4)ccn23)cc(OC(F)F)c1C(=O)NC1CC1 (single isomer, unassigned) [Cpd 162, N-cyclopropyl-4-[7-(1-cyclopropyl-1-hydroxy-ethyl)imidazo[1,2-a]pyridin-3-yl]-2-(difluoromethoxy)-6-methoxy-benzamide] | 100 to 1000
CC[C@](C)(O)c1ccn2c(-c3cc(OC)c(C(=O)NC4CC4)c(OC(F)F)c3)cnc2c1 (single isomer, unassigned) [Cpd 164, N-cyclopropyl-2-(difluoromethoxy)-4-[7-(1-hydroxy-1-methyl-propyl)imidazo[1,2-a]pyridin-3-yl]-6-methoxy-benzamide] | 100 to 1000
COc1cc(-c2cnc3cc([C@@](C)(C#N)CO)ccn23)cc(OC(F)F)c1C(=O)NC1CC1 (single isomer, unassigned) [Cpd 189, 4-[7-(1-cyano-2-hydroxy-1-methyl-ethyl)imidazo[1,2-a]pyridin-3-yl]-N-cyclopropyl-2-(difluoromethoxy)-6-methoxy-benzamide] | 1000 to 5000
COc1cc(-c2cnc3cc(C(C)(C)C#N)ccn23)cc(OC(F)F)c1C(=O)NC1CC1 [Cpd 19, 4-[7-(1-cyano-1-methyl-ethyl)imidazo[1,2-a]pyridin-3-yl]-N-cyclopropyl-2-(difluoromethoxy)-6-methoxy-benzamide] | 100 to 1000
CCC(C)(C#N)c1ccn2c(-c3cc(OC)c(C(=O)NC4CC4)c(OC(F)F)c3)cnc2c1 (centres unmarked) [Cpd 27, 4-[7-(1-cyano-1-methyl-propyl)imidazo[1,2-a]pyridin-3-yl]-N-cyclopropyl-2-(difluoromethoxy)-6-methoxy-benzamide] | 100 to 1000
COc1cc(-c2cnc3cc(C(C)(C)C#N)ccn23)cc(OC)c1C(=O)NC1CC1 [Cpd 28, 4-[7-(1-cyano-1-methyl-ethyl)imidazo[1,2-a]pyridin-3-yl]-N-cyclopropyl-2,6-dimethoxy-benzamide] | 100 to 1000
COc1cc(-c2cnc3cc(C4(C#N)CC4)ccn23)cc(OC(F)F)c1C(=O)NC1CC1 [Cpd 33, 4-[7-(1-cyanocyclopropyl)imidazo[1,2-a]pyridin-3-yl]-N-cyclopropyl-2-(difluoromethoxy)-6-methoxy-benzamide] | 100 to 1000
COc1cc(-c2cnc3cc(C(C)(C)O)ccn23)cc(OC(F)F)c1C(=O)NC1CC1 [Cpd 35, N-cyclopropyl-2-(difluoromethoxy)-4-[7-(1-hydroxy-1-methyl-ethyl)imidazo[1,2-a]pyridin-3-yl]-6-methoxy-benzamide] | 100 to 1000
COc1cc(-c2cnc3cc(C(C)(C)C#N)ccn23)cc(OC(F)F)c1C(=O)NCC1CC1 [Cpd 39, 4-[7-(1-cyano-1-methyl-ethyl)imidazo[1,2-a]pyridin-3-yl]-N-(cyclopropylmethyl)-2-(difluoromethoxy)-6-methoxy-benzamide] | 100 to 1000
COc1cc(-c2cnc3cc(C4CN(C(C)=O)C4)ccn23)cc(OC(F)F)c1C(=O)NC1CC1 [Cpd 63, 4-[7-(1-acetylazetidin-3-yl)imidazo[1,2-a]pyridin-3-yl]-N-cyclopropyl-2-(difluoromethoxy)-6-methoxy-benzamide] | 1000 to 5000
COc1cc(-c2cnc3cc(C4CCCN(C(=O)OC(C)(C)C)C4)ccn23)cc(OC(F)F)c1C(=O)NC1CC1 (centres unmarked) [Cpd 64, tert-butyl 3-[3-[4-(cyclopropylcarbamoyl)-3-(difluoromethoxy)-5-methoxy-phenyl]imidazo[1,2-a]pyridin-7-yl]piperidine-1-carboxylate] | 100 to 1000
COc1cc(-c2cnc3cc(C(C)(C)C#N)ccn23)cc(OC(F)F)c1C(=O)N1CC(F)(F)C1 [Cpd 69, 2-[3-[4-(3,3-difluoroazetidine-1-carbonyl)-3-(difluoromethoxy)-5-methoxy-phenyl]imidazo[1,2-a]pyridin-7-yl]-2-methyl-propanenitrile] | 100 to 1000
COc1cc(-c2cnc3cc(C(C)(C)C#N)ccn23)cc(OC(F)F)c1C(=O)NCC(F)F [Cpd 70, 4-[7-(1-cyano-1-methyl-ethyl)imidazo[1,2-a]pyridin-3-yl]-N-(2,2-difluoroethyl)-2-(difluoromethoxy)-6-methoxy-benzamide] | 100 to 1000
COc1cc(-c2cnc3cc(C(C)(C)C#N)ccn23)cc(OC(F)F)c1C(=O)N1CC(C#N)C1 [Cpd 77, 1-[4-[7-(1-cyano-1-methyl-ethyl)imidazo[1,2-a]pyridin-3-yl]-2-(difluoromethoxy)-6-methoxy-benzoyl]azetidine-3-carbonitrile] | 100 to 1000
COc1cc(-c2cnc3cc(C(C)(C)C#N)ccn23)cc(OC(F)F)c1C(=O)N[C@@H]1C[C@@H]1F [Cpd 79, 4-[7-(1-cyano-1-methyl-ethyl)imidazo[1,2-a]pyridin-3-yl]-2-(difluoromethoxy)-N-[(1R,2S)-2-fluorocyclopropyl]-6-methoxy-benzamide] | 100 to 1000
COc1cc(-c2cnc3cc(C(C)(C)CN)ccn23)cc(OC(F)F)c1C(=O)NC1CC1 [Cpd 93, 4-[7-(2-amino-1,1-dimethyl-ethyl)imidazo[1,2-a]pyridin-3-yl]-N-cyclopropyl-2-(difluoromethoxy)-6-methoxy-benzamide] | 1000 to 5000
COc1cc(-c2cnn3cc(C4CCOCC4)cnc23)cc(OC(F)F)c1C(=O)NC1CC1 [Cpd 95, N-cyclopropyl-2-(difluoromethoxy)-6-methoxy-4-(6-tetrahydropyran-4-ylpyrazolo[1,5-a]pyrimidin-3-yl)benzamide] | 1000 to 5000
COc1cc(-c2cnc3cc(C(C)(C)C#N)ccn23)cc(OC(F)F)c1C(=O)N1CC(F)C1 [Cpd 96, 2-[3-[3-(difluoromethoxy)-4-(3-fluoroazetidine-1-carbonyl)-5-methoxy-phenyl]imidazo[1,2-a]pyridin-7-yl]-2-methyl-propanenitrile] | 100 to 1000

Same assay, conditions: human MdM; LPS 200 ng/mL; supernatant after 20 h; inhibition of TNFα; read-out: TNFα EC50

Compound | EC50 [nM]
COc1cc(-c2cnc3cc([C@@](C)(O)C4CC4)ccn23)cc(OC(F)F)c1C(=O)NC1CC1 (single isomer, unassigned) [Cpd 163, N-cyclopropyl-4-[7-(1-cyclopropyl-1-hydroxy-ethyl)imidazo[1,2-a]pyridin-3-yl]-2-(difluoromethoxy)-6-methoxy-benzamide] | 100 to 1000
CC[C@](C)(O)c1ccn2c(-c3cc(OC)c(C(=O)NC4CC4)c(OC(F)F)c3)cnc2c1 (single isomer, unassigned) [Cpd 165, N-cyclopropyl-2-(difluoromethoxy)-4-[7-(1-hydroxy-1-methyl-propyl)imidazo[1,2-a]pyridin-3-yl]-6-methoxy-benzamide] | 100 to 1000
COc1cc(-c2cnc3cc([C@@](C)(C#N)CO)ccn23)cc(OC(F)F)c1C(=O)NC1CC1 (single isomer, unassigned) [Cpd 190, 4-[7-(1-cyano-2-hydroxy-1-methyl-ethyl)imidazo[1,2-a]pyridin-3-yl]-N-cyclopropyl-2-(difluoromethoxy)-6-methoxy-benzamide] | 1000 to 5000

Same assay, conditions: read-out: TNFα EC50; human MdM; LPS 200 ng/mL; supernatant after 20 h; inhibition of TNFα

Compound | EC50 [nM]
COc1cc(-c2cnn3cc(C(C)(C)C#N)ccc23)cc(OC(F)F)c1C(=O)N[C@@H]1C[C@H]1F (single isomer, unassigned) [Cpd 258, 4-[6-(1-cyano-1-methyl-ethyl)pyrazolo[1,5-a]pyridin-3-yl]-2-(difluoromethoxy)-N-(2-fluorocyclopropyl)-6-methoxy-benzamide] | 100 to 1000
